Test results from patent US20080220069A1, “Long Acting Injectable Crystal Formulations of Estradiol Metabolites and Methods of Using Same” (PR PHARMACEUTICALS, INC., priority 2004, published 2008).
Blank lines part the entries; values can stand above or below the compound they belong to.

Columns and labels:
[1] = rat, 16 mg subcutaneous in 2.5% w/v sodium carboxymethylcellulose, after 15 days
[2] = room temperature
[3] = In vivo pharmacokinetics of altered crystal form (hemi hydrate) of 2ME (Example 6); settings: rat, 5 mg/rat subcutaneous, hemi hydrate crystals approx. 10 μm, by day 28
Protocol: A solution of 2-methoxyestradiol (2ME) (Tetrionics, Madison, Wis.) was made in n-methylpyrrolidone at a 10% w/v concentration. One volume of the 2ME solution was added to 1000 volumes of water stirring rapidly at 23° C. The mixture was allowed to stir prior to the addition of sodium dodecyl sulfate (SDS) to a final concentration of 0.1% w/v. The 2ME was collected by sedimentation and washed twice with 0.1% SDS.
(§1) On day 0, each animal in the treatment group (n=6) received 5 mg/rat of 2ME in 0.25 ml injection vehicle consisting of 0.5% w/v sodium carboxymethylcellulose containing 5% w/v mannitol and 0.05% w/v SDS by subcutaneous injection using a 1 cc syringe and a 1 inch, 20-gauge needle. On Day—3 blood was collected from all rats via the tail vein. Rats were bled periodically via the lateral tail vein. Plasma samples were extracted, derivatized, and 2ME concentration was measured using a qualified gas chromatography-mass spectroscopy detection method. Plasma concentrations versus time are plotted in FIG. 2.

[4] = In vivo pharmacokinetics of 2ME particles ranging from 90 to 180 micrometers (Example 7); settings: rat, 5 mg/rat subcutaneous, particles 90 to 180 micrometers
Protocol: as §1, with “A portion of the 2-methoxyestradiol prepared in Example 1 was ground in a mortar and pestle and sieved through stainless steel screens to generate a population of particles ranging from 90 to 180 micrometers. On day” for “On day”, “in FIG. 3.” for “in FIG. 2.”

[5] = In vivo pharmacokinetics of 2ME crystal preparation with broad size distribution (Example 2), plasma 2ME by gas chromatography-mass detection; settings: rat, 5 mg/rat subcutaneous
Protocol: The material generated in Example 1 was ground in a mortar and pestle, sieved through a 180 um screen, and the particle size distribution of the sieved material was measured on a Coulter LS13320 Particle Size analyzer.
On day 0, animals in all treatment groups received 5 mg/rat of 2ME in 0.25 ml injection vehicle consisting of 2.0% w/v sodium carboxymethylcellulose containing 0.01% w/v Tween 80 and 0.1% w/v SDS by subcutaneous injection using a 1 cc syringe and a 1″, 20-gauge needle. On Day—3 blood was collected from all rats via the tail vein. On Days 1, 3, 7, 21, 28, and 35, all rats were bled via the lateral tail vein. Plasma samples were extracted, derivatized, and 2ME concentration was measured using a qualified gas chromatography-mass detection method. The plasma concentration profile of 2ME released from crystals with a broad size distribution is characterized by an initial burst followed by sustained blood levels of approximately 5 ng/ml between days 3 and 28.

Compound: COc1cc2c(cc1OC(=O)c1ccccc1)CC[C@@H]1[C@@H]2CC[C@]2(C)[C@@H](O)CC[C@@H]12 [3-benzoyl-2-methoxyestradiol]
release of the injected dose (chromatographic analysis of dissected injection site) [1]: 6.2%±1.2 | water solubility of the esterified compound, fold lower than parent estradiol metabolite ([2]; same conditions as parent): approximately 3 fold

plasma 2ME concentrations [3]: fallen to zero | 2ME in plasma ([4]; day 51): still measurable | initial plasma concentrations ([4]; first week): low initial plasma concentrations | sustained blood levels of 2ME ([5]; crystals 48.98±36.95 μm, between days 3 and 28): approximately 5 ng/ml | 2ME blood levels ([5]; crystals 48.98±36.95 μm, by day 35): fallen to zero | plasma concentration profile, initial phase ([5]; crystals with a broad size distribution): initial burst
Compound: COc1cc2c(cc1O)CC[C@@H]1[C@@H]2CC[C@]2(C)[C@@H](O)CC[C@@H]12 [2ME, 2-methoxyestradiol]

Compound: C[C@]12CC[C@@H]3c4cc(O)c(O)cc4CC[C@H]3[C@@H]1CC[C@@H]2O [2-hydroxyestradiol]
water solubility [2]: approximately 0.155 mg/ml
